Results reported in US9211310B2, “Use of a Chinese medicine composition in preparing medicaments for treating secondary prevention of myocardial infarction” (TASLY PHARMACEUTICAL GROUP CO., LTD, priority 2010, dated 2015).

Test system: patients after acute myocardial infarction
Assay: TCM symptom score, total and single (chest pain, chest tightness, short breath, fatigue, palpitation, spontaneous perspiration, pale complexion), same clinical trial
Format: in vivo, human
Design: total score of TCM symptom, Mean / total score of TCM symptom, Min / total score of TCM symptom, Max / total score of TCM symptom, Md / change of total score of TCM symptom, Mean / change of total score of TCM symptom, Max / change of total score of TCM symptom, Md: scale not given here
Details: PP
Source text: 3508 patients who were in accordance with the diagnostic standards of AMI for 28 days to 2 years and differentiated as Qi deficiency and blood stagnation syndrome by TCM were studied. 0.5 g Chinese medicine composition prepared by the method of EXAMPLE 1 (Coded as QSYQ) was administrated half an hour after meal, 3 times per day.
They included the overall survival time, angina pectoris score, TCM symptom score and life quality score, where angina pectoris score, TCM symptom score and life quality score were evaluated at randomization, in 1st, 3rd, 6th, 9th, 12th month after treatment and 18th month after follow-up.
The analysis method referred to the angina pectoris score.

[1] = 1 month after treatment-baseline
[2] = 3 month after treatment-baseline
[3] = 3 months after treatment-baseline

## CC(=O)Oc1ccccc1C(=O)O [Control group, aspirine]
[1]
  change of palpitation −3, number of patients: 0
  change of palpitation −3, percent of patients: (0.00%)
  change of short breath 0, % of patients: (77.53%)
  change of short breath 0, number of patients: 1132
  change of short breath 2, % of patients: (14.59%)
  change of short breath 2, number of patients: 213
  change of short breath 4, % of patients: (1.71%)
  change of short breath 4, number of patients: 25
  change of short breath 6, % of patients: (0.41%)
  change of short breath 6, number of patients: 6
  change of short breath −2, % of patients: (5.27%)
  change of short breath −2, number of patients: 77
  change of short breath −4, % of patients: (0.48%)
  change of short breath −4, number of patients: 7
  change of short breath −6, % of patients: (0.00%)
  change of short breath −6, number of patients: 0
  change of spontaneous perspiration 0, number of patients: 1068
  change of spontaneous perspiration 0, percent of patients: (73.15%)
  change of spontaneous perspiration 1, number of patients: 238
  change of spontaneous perspiration 1, percent of patients: (16.30%)
  change of spontaneous perspiration 2, number of patients: 48
  change of spontaneous perspiration 2, percent of patients: (3.29%)
  change of spontaneous perspiration 3, number of patients: 12
  change of spontaneous perspiration 3, percent of patients: (0.82%)
  change of spontaneous perspiration −1, number of patients: 77
  change of spontaneous perspiration −1, percent of patients: (5.27%)
  change of spontaneous perspiration −2, number of patients: 14
  change of spontaneous perspiration −2, percent of patients: (0.96%)
  change of spontaneous perspiration −3, number of patients: 3
  change of spontaneous perspiration −3, percent of patients: (0.21%)
  change of total score of TCM symptom, Max: 24.00
  change of total score of TCM symptom, Md: −1.00
  change of total score of TCM symptom, Mean: −2.00
  change of total score of TCM symptom, Min: −28.00
[2]
  change of total score of TCM symptom, Max: 19.00
  change of total score of TCM symptom, Md: −2.00
  change of total score of TCM symptom, Mean: −3.05
  change of total score of TCM symptom, Min: −28.00
3 months after treatment
  distribution of total score of TCM symptom: Medium, number of patients: 489
  distribution of total score of TCM symptom: Medium, percentage of patients: (33.79%)
  distribution of total score of TCM symptom: Mild, number of patients: 946
  distribution of total score of TCM symptom: Mild, percentage of patients: (65.38%)
  distribution of total score of TCM symptom: Severe, number of patients: 12
  distribution of total score of TCM symptom: Severe, percentage of patients: (0.83%)
  fatigue score 0, % of patients: (28.28%)
  fatigue score 0, number of patients: 409
  fatigue score 2, % of patients: (59.75%)
  fatigue score 2, number of patients: 864
  fatigue score 4, % of patients: (11.41%)
  fatigue score 4, number of patients: 165
  fatigue score 6, % of patients: (0.55%)
  fatigue score 6, number of patients: 8
  pale complexion score 0, number of patients: 693
  pale complexion score 0, percent of patients: (47.89%)
  pale complexion score 1, number of patients: 566
  pale complexion score 1, percent of patients: (39.12%)
  pale complexion score 2, number of patients: 172
  pale complexion score 2, percent of patients: (11.89%)
  pale complexion score 3, number of patients: 16
  pale complexion score 3, percent of patients: (1.11%)
  palpitation score 0, number of patients: 403
  palpitation score 0, percent of patients: (27.87%)
  palpitation score 2, number of patients: 759
  palpitation score 2, percent of patients: (52.49%)
  palpitation score 4, number of patients: 261
  palpitation score 4, percent of patients: (18.05%)
  palpitation score 6, number of patients: 23
  palpitation score 6, percent of patients: (1.59%)
  short breath score 0, % of patients: (21.44%)
  short breath score 0, number of patients: 310
  short breath score 3, % of patients: (59.13%)
  short breath score 3, number of patients: 855
  short breath score 6, % of patients: (18.74%)
  short breath score 6, number of patients: 271
  short breath score 9, % of patients: (0.69%)
  short breath score 9, number of patients: 10
  spontaneous perspiration score 0, number of patients: 563
  spontaneous perspiration score 0, percent of patients: (38.93%)
  spontaneous perspiration score 1, number of patients: 709
  spontaneous perspiration score 1, percent of patients: (49.03%)
  spontaneous perspiration score 2, number of patients: 167
  spontaneous perspiration score 3, number of patients: 7
  spontaneous perspiration score 3, percent of patients: (0.48%)
  total score of TCM symptom, Max: 33.00
  total score of TCM symptom, Md: 10.00
  total score of TCM symptom, Mean: 10.88
  total score of TCM symptom, Min: 0.00
[3]
  change of fatigue 0, % of patients: (63.96%)
  change of fatigue 0, number of patients: 923
  change of fatigue 2, % of patients: (25.50%)
  change of fatigue 2, number of patients: 368
  change of fatigue 4, % of patients: (4.16%)
  change of fatigue 4, number of patients: 60
  change of fatigue 6, % of patients: (0.97%)
  change of fatigue 6, number of patients: 14
  change of fatigue −2, % of patients: (4.85%)
  change of fatigue −2, number of patients: 70
  change of fatigue −4, % of patients: (0.42%)
  change of fatigue −4, number of patients: 6
  change of fatigue −6, % of patients: (0.14%)
  change of fatigue −6, number of patients: 2
  change of pale complexion 0, number of patients: 1177
  change of pale complexion 0, percent of patients: (81.68%)
  change of pale complexion 1, number of patients: 217
  change of pale complexion 1, percent of patients: (15.06%)
  change of pale complexion −1, number of patients: 47
  change of pale complexion −1, percent of patients: (3.26%)
  change of palpitation 0, number of patients: 943
  change of palpitation 0, percent of patients: (65.35%)
  change of palpitation 1, number of patients: 356
  change of palpitation 1, percent of patients: (24.67%)
  change of palpitation 2, number of patients: 39
  change of palpitation 2, percent of patients: (2.70%)
  change of palpitation 3, number of patients: 5
  change of palpitation 3, percent of patients: (0.35%)
  change of palpitation −1, number of patients: 99
  change of palpitation −1, percent of patients: (6.86%)
  change of palpitation −2, number of patients: 1
  change of palpitation −2, percent of patients: (0.07%)
  change of palpitation −3, number of patients: 0
  change of palpitation −3, percent of patients: (0.00%)
  change of short breath 0, % of patients: (70.27%)
  change of short breath 0, number of patients: 1014
  change of short breath 2, % of patients: (21.41%)
